The values below come from paper PMC4191963, “DNA Binding Properties of the Actin-Related Protein Arp8 and Its Role in DNA Repair” (PLoS ONE, 2014).

Series [1] addresses T1, human Arp8 (Homo sapiens, UniProt Q9H981).
T1 construct: gene ACTR8; full length, N-terminal His6 tag removed with PreScission protease, expressed in E. coli
As to the kind of experiment: agarose gel shift, loss of dsDNA binding. To be noted: 1 mM MgCl2, pH 7.5, 37 °C, phiX174 dsDNA. On the technique in general: In EMSA bound probe runs differently from free probe, usually more slowly.

The target in series [2] is T2, human Arp8 (Homo sapiens, UniProt Q9H981, E266A).
T2 construct: gene ACTR8; full length, N-terminal His6 tag removed with PreScission protease, expressed in E. coli
Kind of series: agarose gel shift, loss of dsDNA binding. To be noted: 1 mM ATP, 1 mM MgCl2, pH 7.5, 37 °C, phiX174 circular dsDNA; ATP-binding pocket.

Series [3] concerns the target Arp8 (Homo sapiens, UniProt Q9H981 1-624). As to the kind of experiment: competition EMSA (PAGE); 3 µM each of ssDNA, dsDNA, 3'-overhang; 250 mM NaCl; highest apparent affinity; 20 mM HEPES-NaOH pH 7.5, 160 mM NaCl (250 mM in oligonucleotide competition), 1 mM MgCl2, 1 mM DTT, 0.1 mg/ml BSA, 8% glycerol (not listed for competition), +/- 1 mM ATP or ADP, 37 C 15 min. To be noted: protein: recombinant; tags: His6 (N-terminal) removed by PreScission; single-stranded.

T1 sequence (Q9H981 whole entry): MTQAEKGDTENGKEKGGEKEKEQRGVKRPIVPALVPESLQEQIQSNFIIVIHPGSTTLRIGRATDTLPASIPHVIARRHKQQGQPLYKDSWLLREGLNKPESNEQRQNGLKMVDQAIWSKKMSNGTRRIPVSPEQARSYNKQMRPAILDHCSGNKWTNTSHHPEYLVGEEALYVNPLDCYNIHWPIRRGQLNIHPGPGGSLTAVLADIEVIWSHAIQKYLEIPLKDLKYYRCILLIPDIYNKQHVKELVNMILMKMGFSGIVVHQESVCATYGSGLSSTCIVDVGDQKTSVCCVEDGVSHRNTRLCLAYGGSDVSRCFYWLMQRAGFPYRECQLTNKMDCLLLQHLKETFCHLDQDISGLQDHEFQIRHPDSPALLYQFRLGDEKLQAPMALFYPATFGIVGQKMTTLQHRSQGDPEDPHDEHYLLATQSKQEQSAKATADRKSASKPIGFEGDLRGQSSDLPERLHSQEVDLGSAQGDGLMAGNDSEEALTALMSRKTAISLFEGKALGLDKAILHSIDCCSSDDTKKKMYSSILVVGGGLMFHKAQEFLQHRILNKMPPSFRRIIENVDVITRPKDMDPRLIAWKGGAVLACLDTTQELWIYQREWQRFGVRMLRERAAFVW
T2 sequence (Q9H981 whole entry E266A): as the sequence (Q9H981 whole entry) above, with E266A counted along it
Arp8, sequence (Q9H981 whole entry): as the sequence (Q9H981 whole entry) above

Regarding `Nc1ncnc2c1ncn2[C@@H]1O[C@H](COP(=O)(O)OP(=O)(O)O)[C@@H](O)[C@H]1O` [ADP], the “agarose gel shift, loss of dsDNA binding” value in series [1] (1 mM ADP) is recorded as “addition of ADP only slightly decreased the binding of Arp8 to dsDNAs”.

In the case of `Nc1ncnc2c1ncn2[C@@H]1O[C@H](COP(=O)(O)OP(=O)(O)OP(=O)(O)O)[C@@H](O)[C@H]1O` [ATP], the “agarose gel shift, loss of dsDNA binding” value in series [1] (1 mM ATP, ATP-binding pocket) was “Addition of ATP to the binding assay mixture significantly decreased the binding of Arp8”; in series [2] it was “ATP only partially inhibited the DNA binding activity of the Arp8 E266A mutant”.

On to CCTCGATCCTACCAACCAGATGACGCGCTGCTACGTGCTACCGGAAGTCG (ssDNA) [a3 ssDNA], for which the binding result in series [3] was “binds”.
